One experiment has as its system MelanoDerm equivalents. In words: Pigmentation in melanocyte-containing epidermal equivalents. The settings on record: keratinocyte-melanocyte contact. Type of experiment: cell-based. The protocol: (§1) Since PAR-2 is expressed in keratinocytes, but not in melanocytes, the possible requirement of keratinocyte-melanocyte contact was tested for the effect of Compound I and SLIGRL on melanosome phagocytosis by the keratinocytes. Primary melanocyte cultures (commercially available from Clonetics, San Diego) were plated under epidermal equivalents (EpiDerm, of MatTek, Ashland, Mass.) to create an equivalent-monolayer co-culture with no contact between keratinocytes and melanocytes. These co-cultures were compared to MelanoDerm equivalents (of MatTek), where melanocytes are present in the basal layer of the equivalent. Cultures were treated with Compound I, with the […], and with the PAR-2 agonist SLIGRL. As set forth in Table 3, keratinocytes are indicated by “K”, melanocytes are indicated by “M”, and lack of keratinocyte-melanocyte contact is indicated as “no K-M cont”. […] The same result was also observed with monolayer keratinocyte/melanocyte co-cultures having keratinocyte/melanocyte contact.

The test system of experiment [1] is melanocyte cultures plated under epidermal equivalents (EpiDerm). The experiment is described as follows: Pigmentation in equivalent-monolayer co-culture (no K-M contact). It counts as cell-based. The following applies: no keratinocyte-melanocyte contact. As to the method:
as §1

Experiment [2] deals with monolayer keratinocyte/melanocyte co-cultures. In words: Pigmentation in monolayer keratinocyte/melanocyte co-cultures (K-M contact). It counts as cell-based. The settings on record: keratinocyte-melanocyte contact. As to the method:
as §1

For the next experiment, the system named is Human keratinocytes. In words: Timing of effect on keratinocyte microsphere phagocytosis. Type of experiment: cell-based. More on the design: key: +: Plus signs indicate an effect on phagocytosis; −: minus signs indicate no effect on phagocytosis; −/+: plus/minus signs indicate a marginal effect on phagocytosis. The settings on record: effect = decrease for Compound I, increase for SLIGRL. As to the method:
In this example, human primary keratinocytes or the human keratinocyte cell line HaCaT were used as in vitro model systems to study the effect of PAR-2 regulators on keratinocyte phagocytosis. The human primary keratinocytes used are commercially available from Clonetics (San Diego, Calif.). Cells were plated on chamber slides, at 2 chambers/slide and 60,000 cells/chamber. Cells were treated once daily, for two or three days, with Compound I (1μM), SLIGRL (10μM), or vehicle (Phosphate-buffered saline, (“PBS”) from Gibco-BRL (Gaithersburg, Md.). After two or three days of exposure to the test compounds, cells were exposed to Nile-red or FITC fluorescent microspheres, 1 μm in diameter, 50 microspheres/cell, for two hours at 37° C. Microspheres were from Molecular Probes (Eugene, Oreg.), and were processed according to manufacturer's instructions. Following that treatment, cells were incubated with 15% Fetal Bovine Serum (“FBS”, from Gibco-BRL), for 15 minutes at 37° C. and rinsed with PBS. At that time, chambers were separated from the slides, and the slides were covered with glycerol and coverslips. Fluorescent microscopy was performed using a Zeiss Axiovert 35 or a Nikon Optiphot-2 microscope.
Human keratinocytes were treated with Compound I or SLIGRL for periods of time ranging from one hour to two days. At the end of the treatment period, the cells were treated with microspheres as described in Example 1. […] Plus signs indicate an effect on phagocytosis, minus signs indicate no effect on phagocytosis, and plus/minus signs indicate a marginal effect on phagocytosis. The effects measured were a decrease for Compound I and an increase for SLIGRL. […] This implies that the PAR-2 signaling results in new protein synthesis, a reduction in protein synthesis when a turnover time is required to eliminate the existing relevant protein(s), or a rearrangement of proteins (as occurs in the reorganization of cytoskeletal components).

Experiment [3] relates to human primary keratinocytes. In words: Fluorescent microsphere ingestion by human primary keratinocytes. It counts as cell-based. The following applies: treated two days; Compound I 1μM, SLIGRL 10μM; vs vehicle control; FIG. 1. The protocol: In order to study the role of the PAR-2 pathway in phagocytosis, several in vitro model systems were used. One system used contained primary human keratinocytes or a human keratinocyte cell line. In this and a number of following examples, cells were treated with test compounds for different amounts of time (from one hour to three days), and samples were then incubated with fluorescent microspheres for two hours. The beads ingested by the cells were photographed using fluorescence microscopy.
In this example, human primary keratinocytes or the human keratinocyte cell line HaCaT were used as in vitro model systems to study the effect of PAR-2 regulators on keratinocyte phagocytosis. The human primary keratinocytes used are commercially available from Clonetics (San Diego, Calif.). Cells were plated on chamber slides, at 2 chambers/slide and 60,000 cells/chamber. […]
Microspheres were also found around the cell, probably because they are non-specifically attached to extracellular-matrix components secreted by the cell. The quantity of the microspheres ingested was changed with the treatments.

For the next experiment, the system named is Human PMN cells. In words: PMN chemotactic migration towards FMLP, Boyden chamber. Type of experiment: cell-based. The following applies: cells counted at 115 microns; PMN pretreated with 5 or 0.5 mg/ml STI or 1 or 0.1 μM Compound I; buffer without FMLP: 19 at 80 μ. The protocol:
Since ICAM-1 is involved in cell migration, cell migration towards a chemotactic peptide was studied in cells treated with Compound I and STI. Human PMN cells were placed in one side of a Boyden chamber, using standard techniques, and a chemotactic peptide (FMLP) was placed in the other chamber. Cells were allowed to migrate into the second chamber, and the number of migrating cells per field and distance of migration were calculated. The experiment was repeated with PMN cells pretreated with one of the following: 5 or 0.5 mg/ml STI, 1 or 0.1 μM Compound I, a buffer vehicle, and with and without chemotactic peptide. The number of cells per field that migrated the same distance as the untreated control was measured. Without the peptide and with no treatment, an average of 19 cells/field were migrating a distance of 80 microns. […] In other words, no cells (or less than 5/field) were identified at 115 microns. […] The ability to inhibit PMN migration is an important constituent of anti-inflammatory compounds.

Experiment [4] deals with human skin, grafted on immuno-suppressed mice. The experiment is described as follows: Pigmentation of human skin grafted on immuno-suppressed mice. Type of experiment: in vivo. The protocol: Human white facial skin samples were grafted on immuno-suppressed mice using standard techniques. About six weeks later grafts of the same individual, grafted on different mice, were treated with vehicle (ethanol: propylene glycol 70:30), or with 50 μM SLIGRL. Treatment was performed daily, 5 days/week. Darkening of the SLIGRL-treated grafts was visually observed during the last weeks of treatment (see FIG. 7A). On day 66, the animals were sacrificed and their skins were analyzed histologically.
The same experiment was repeated with black human breast skin samples grafted on immuno-suppressed mice. Grafts of the same individual were treated with vehicle (GDL liposomes) or with 1% STI. GDL liposomes were prepared as set forth in Niemiec, et al., with the exception of the following changes: the non-ionic liposomal formulation contained glycerol dilaurate (Emulsynt GDL, ISP Van Dyk)/cholesterol (Croda)/polyoxyethylene-10-stearyl ether (Brij76, ICI)/polyoxyethylene-9-lauryl ether, at ratio of 37.5:12.5:33.3:16.7. Hepes buffer, 0.05M, pH 7.4 (Gibco-BRL of Gaithersburg, Md.) was used as the aqueous phase in the preparation of the liposomes.

Entries after “also recorded” stand apart in the source; their conditions may differ.

In the case of `CN[C@H](Cc1ccccc1)C(=O)N1CCCC1C(=O)N[C@@H](CCCNC(=N)N)C(=O)c1nc2ccccc2s1` (stereo partly drawn) [Compound I, (S)-N-Methyl-D-phenylalanyl-N-[4-[(aminoiminomethyl)amino]-1-(2-benzothiazolylcarbonyl)butyl]-L-prolinamide], in the experiment with MelanoDerm equivalents, the “level of pigmentation, Epidermal Equivalents (K-M cont.)” value was “reduced; also recorded: lightening”. In addition, the “level of pigmentation, Equivalent Monolayer Co-culture (no K-M cont.)” value in experiment [1] is “no effect”. For the same molecule, the “level of pigmentation, Mono-Layer Co-Cultures (K-M cont.)” value in experiment [2] is “lightening”. Also, the effect on phagocytosis entry with Human keratinocytes (1 hour of treatment) is “−”; with Human keratinocytes (2 hours of treatment), “−”; with Human keratinocytes (4 hours of treatment), “−”; in the experiment with Human keratinocytes (6 hours of treatment) it was “−”; with Human keratinocytes (8 hours of treatment), “−/+”; in the experiment with Human keratinocytes (16 hours of treatment) it was “+”. For the same molecule, the effect on phagocytosis result in the experiment on Human keratinocytes (24 hours of treatment) and in the experiment with Human keratinocytes (48 hours of treatment) was “+” in each case. For the same molecule, in experiment [3], the “quantity of ingested microspheres” value is listed as “dramatic reduction in the quantity of ingested microspheres”. The Cells/Field with Human PMN cells is under 5 cells/field.

On to SLIGRL [reference compound], for which the “level of pigmentation, Epidermal Equivalents (K-M cont.)” value in the experiment on MelanoDerm equivalents was “induced pigmentation; also recorded: darkening”. The “level of pigmentation, Equivalent Monolayer Co-culture (no K-M cont.)” value in experiment [1] is reported as “no effect”. Moreover, in experiment [2], the “level of pigmentation, Mono-Layer Co-Cultures (K-M cont.)” value was “darkening”. The effect on phagocytosis entry in the experiment with Human keratinocytes (1 hour of treatment) is reported as “−”; with Human keratinocytes (2 hours of treatment), “−”; in the experiment on Human keratinocytes (4 hours of treatment), “−”; in the experiment with Human keratinocytes (6 hours of treatment), “−”; with Human keratinocytes (8 hours of treatment) it was “−/+”; in the experiment with Human keratinocytes (16 hours of treatment) it was “+”. Moreover, the effect on phagocytosis entry in the experiment with Human keratinocytes (24 hours of treatment) and in the experiment on Human keratinocytes (48 hours of treatment) was “+” throughout. The “visual appearance of grafts” value in experiment [4] (white facial skin grafts, 50 μM SLIGRL topical daily, 5 days/week, last weeks of treatment, FIG. 7A) is “Darkening”. Further, the “melanin in F&M-stained sections” value in experiment [4] (white facial skin grafts, 50 μM SLIGRL, day 66, FIG. 7B) is “increase in melanin”. Moreover, in experiment [3], the “quantity of ingested microspheres” value is “dramatic increase in the number of ingested microspheres”.

B1: STI: Soybean trypsin inhibitor, a serine protease inhibitor capable of affecting the PAR-2 pathway (protein, UniProt P01070 25-205, looked up)
Trypsin inhibitor A: DFVLDNEGNPLENGGTYYILSDITAFGGIRAAPTGNERCPLTVVQSRNELDKGIGTIISSPYRIRFIAEGHPLSLKFDSFAVIMLCVGIPTEWSVVEDLPEGPAVKIGENKDAMDGWFRLERVSDDEFNNYKLVFCPQQAEDDKCGDIGISIDHDDGTRRLVVSKNKPLVVQFQKLDKESL
With B1, the “pigmentation in F&M-stained skin sections” value in experiment [4] (black breast skin grafts, 1% STI in GDL liposomes, FIG. 7C) is “reduce pigmentation in human skin”. Further, the Cells/Field with Human PMN cells was under 5 cells/field.
